Source: patent US6379959B1, “Metalocarboxypeptidase inhibitors and derived molecules used as antitumor agents” (Universitat Autonoma de Barcelona, priority 1996, dated 2002)
Where “and” joins values, the source holds several entries; their conditions need not be identical. Equal entries are not always repeated. Where two headings read alike, the source gives them in different places. Positions of bridges follow the written chain, without caps; N, C: chain ends. No end group written: not given here.

What was measured:
[1] = system: human pancreatic adenocarcinoma cell line MDAPanc-3; assay: Proliferation test by recount of the cells number (hemocytometer), MDAPanc-3; assay type: cell-based
Method: In this assay and with the aim of determining whether the presence in the culture medium produces some effect on the growth in vitro of the cell lines, the final number of the cells when the control reaches monolayer is determined, in the presence and in the absence of the inhibitor. The calculation is made by direct recount of the number of cells using trypsinization and subsequent recount in a hemocytometer. The detailed method is as follows:
1. In each of the three culture flasks of 25 cm^2, 5×10^5 cells are seed and a total volume of the culture medium is added (DMEM with a 10% of fetal bovine serum or synthetic serum, according to the test) of 5 mL:
A first flask is used as control and no PCI is added to it.
PCI is added to a second flask some hours after the culture has started and once the cells have adhered to the bottom of the flask. This type of test is defined as postadherence test.
PCI is added to a third flask at the same time as the culture has begun, before the cells have had time to adhere to the bottom of the flask, thus constituting the preadherence test.
2. The cells are maintained in an incubator at 37° C., 87% of relative humidity and 10% of CO2. The medium contained in the flasks is changed every 3-4 days. Medium free of PCI is added to the control flask; medium with PCI is added to the other two.
3. When the culture of one of the flasks reaches a state of monolayer (or after a specific number of days), we proceed to count the number of cells in each one of them. Firstly and in order to do that, the cells are trypsinized using the following steps:
Immediately after, the recount of the number of cells is done. To do that, an aliquot of 10 μL is taken and it is placed in an eppendorf tube. 10 μL of a solution of trypan blue dye is added. Then, it is well mixed and two aliquots of 10 μL of the mixture are taken and placed in the two zones of an hemocytometer which is placed in the inverted microscope.
The live cells are observed as being refringent and clear, while the dead ones are observed as opaque and dyed blue, for the staining is only able to penetrate dead cells. The total number of cells of the W zone of the hemocytometer is counted, differentiating between the live and the dead ones. Based on this recount, the total number of cells that was in the initial suspension (which will be the total number of cells that was in the culture) is calculated by multiplying the number obtained by 2×10^4. The viability (in %) is calculated by dividing the number of live cells by the total number of counted cells and multiplying it by 100.
The effect produced by the presence of PCI in the medium is expressed as % of cell growth inhibition, which is calculated according to the formula [formula] […]

[2] = system: mouse melanoma B16 cell line; assay: Metastasis test in vivo, liver metastatic focuses after intrasplenic B16 inoculation; design: species or system mice C57BL/6J; settings: killed day 11 (control 32±7)
Method: In order to study the effect of the PCI on the metastatic capacity of the tumoral cells, mouse melanoma B16 cell line are used used because this line is singeneic with the mice. These cells, intrasplenically inoculated in singeneic mice, after 7 days, start to develop metastasis in the liver of the mouse. The following material was employed:
A control group: consisting of 5 mice to which 300,000 cells dissolved in 0.1 mL of alphaMEM-Hepes were inoculated. The mice, previously anaesthetized with nembutal, were inoculated by way of intrasplenic injection, by means of a little incision and subsequently closed with stitches. These mice were killed 11 days after injection of the tumoral cells by cervical dislocation.
Treatment 1: again, 5 mice were inoculated in the same way as those of the control group. Six days after the injection, a daily treatment with 0.1 mg/mL of PCI in 0.1, mL of PBS by way of intraperitoneal injection was started. The animals were also killed on the eleventh day after the injection.
Treatment 2: in this case, the cells inoculated to the mice (also 5 of them) were previously treated in vitro for 4 days in a concentration of 0.1 mg/mL of PCI. […]
Once killed, their liver was extracted. […] Afterwards, the sections were dyed with hematoxyline-eosine and the number of metastatic focuses was counted.

[3] = system: human pancreatic adenocarcinoma cell line Panc-1; assay type: cell-based; settings: SFM, 72 h
EGF receptor = EGF receptor (Homo sapiens, UniProt P00533); assay: Kinase activity (phosphorilation) of the EGF receptor, Capan-1 cells; assay type: cell-based; design: endogenous in cells; host or cells: Capan-1 (human pancreatic adenocarcinoma)
Method: The material and protocol used have been those described by Donato, N. J. et al. (1989) J. Cell. Biochem., 41: 139-157.
1.c. Wash the cells twice more with tempered PBS and add new serum-free medium. Immediately after, add PCI to the concentration which is going to be studied in the cultures to be treated and incubate for 10 min at 37° C.
2.a. […] Incubate for 1 h in ice.
3.a. Prepare the reaction buffer. Each sample requires 50μL.
3.k. Dry the gel (for at least 3 h) and autoradiograph it for 10 min for the A431 cell line and 2-4 h for the Capan-1 cell line. Count the radiactivity of the filter using a beta counter.

PCI: potato carboxypeptidase inhibitor, isoform IIa, obtained by recombinant DNA techniques in E. coli (SEQ ID NO.2) (EQHADPICNKPCKTHDDCSGAWFCQACWNSARTCGPYVG; disulfide 12-27, 18-34, 8-24)
Percentage of Growth Inhibition ([1]; 5 mg PCI/mL, Postadhesion): 19.1 ± 14.5% | Percentage of Growth Inhibition ([1]; 5 mg PCI/mL, Preadhesion, DMEM+10%BMS until controls confluent): 20.7 ± 6.9% | Percentage of Growth Inhibition ([1]; 10 mg PCI/mL, Postadhesion): 14.3 ± 12.4% | Percentage of Growth Inhibition ([1]; 10 mg PCI/mL, Preadhesion): 14.6 ± 14.2% | number of metastatic focuses in liver ([2]; treatment 1: daily intraperitoneal 0.1 mg/mL of PCI in 0.1 mL PBS from day 6): 27 focuses | number of metastatic focuses in liver ([2]; treatment 2: cells treated in vitro 4 days with 0.1 mg/mL of PCI before inoculation): 4±1 focuses | Growth (Percentage in relation to the average of the controls) ([3]; EGF 10 ng/mL + 50 mg/mL wtPCI): 15.81% | Growth (Percentage in relation to the average of the controls) ([3]; Insulin 5 mg/mL + 50 mg/mL wtPCI): 26.34% | Kinase activity (%) (EGF receptor; 5 ng/mL EGF + 1 mg/mL PCI): 180% | Kinase activity (%) (EGF receptor; 5 ng/mL EGF + 10 mg/mL PCI): 170% | Kinase activity (%) (EGF receptor; 5 ng/mL EGF + 50 mg/mL PCI): 120% | inhibition of the kinase activity induced by EGF (EGF receptor; PCI concentration of 50 μg/mL): 50% | Kinase activity (%) (EGF receptor; basal, incubation with PCI 50 mg/mL, 10 min, 100% = absence of PCI): 70% and 88% and 90%
